As a reminder, the IC50 is the midpoint of a concentration-inhibition curve. The term inhibition in vivo denotes how much of the control response was suppressed.

Active and inactive are the calls of the source. The calls are words filed in the database; no cut-off is given here.

Here are results for 18 compounds from ChEMBL document CHEMBL1914316, “Conversion of systemically-distributed triazole-based stearoyl-CoA desaturase (SCD) uHTS hits into liver-targeted SCD inhibitors” (Bioorg Med Chem Lett, 2011).

The target in data set [1] is T1, Acyl-CoA desaturase 1 (Rattus norvegicus, UniProt P07308).
T1 sequence (P07308 whole entry): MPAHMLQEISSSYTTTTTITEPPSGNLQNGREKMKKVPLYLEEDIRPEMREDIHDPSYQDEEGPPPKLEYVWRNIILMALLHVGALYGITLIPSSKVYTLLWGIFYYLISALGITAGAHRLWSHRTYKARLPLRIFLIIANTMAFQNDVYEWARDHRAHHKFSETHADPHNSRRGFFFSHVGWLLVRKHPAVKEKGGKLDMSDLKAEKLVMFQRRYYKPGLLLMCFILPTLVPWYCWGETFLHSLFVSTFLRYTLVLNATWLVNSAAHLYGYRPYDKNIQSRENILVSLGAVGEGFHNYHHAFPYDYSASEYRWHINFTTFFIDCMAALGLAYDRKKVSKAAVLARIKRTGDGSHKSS
Put plainly: Inhibition of rat SCD by rat microsomal assay.

The next data set deals with T2, Stearoyl-CoA desaturase (Homo sapiens, UniProt O00767).
T2 sequence (O00767 whole entry): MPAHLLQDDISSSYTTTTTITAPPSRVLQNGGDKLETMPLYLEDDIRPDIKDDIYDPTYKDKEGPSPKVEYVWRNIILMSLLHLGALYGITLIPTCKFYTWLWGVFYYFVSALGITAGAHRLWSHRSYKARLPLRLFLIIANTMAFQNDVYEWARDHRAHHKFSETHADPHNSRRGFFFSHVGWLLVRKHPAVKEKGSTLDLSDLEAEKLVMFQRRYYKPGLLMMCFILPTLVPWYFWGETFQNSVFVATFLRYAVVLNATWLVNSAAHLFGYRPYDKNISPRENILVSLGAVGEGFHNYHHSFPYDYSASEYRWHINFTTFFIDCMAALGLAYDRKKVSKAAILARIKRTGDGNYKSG
Nature of the data set: Inhibition of SCD in human HepG2 cells assessed as conversion of [1-(14)C]-stearic acid to (14)C-oleic acid. The class given is cell-based.

Data set [2] in a line: Drug uptake in C57BL/6 mouse liver at 30 mg/kg, po after 3 hrs. The class given is ADME, organism-based, C57BL6. More on the design: dose 30 mg/kg, route oral. The note with it: read-out: Drug uptake.
Data set [3] can be described thus: Drug uptake in C57BL/6 mouse liver at 10 mg/kg, po after 6 hrs. The class given is ADME, organism-based, C57BL6. Set-up: dose 10 mg/kg, route oral. The note with it: read-out: Drug uptake.
The target of data set [4] is T1, Acyl-CoA desaturase 1. Put plainly: Inhibition of SCD in rat hepatocytes assessed as conversion of [14C]-stearic acid to [14C]-oleic acid preincubated for 15 mins measured after 1 hrs by scintillation counting. The class given is cell-based, Hepatocyte.
Data set [5] deals with Mus musculus. Nature of the data set: Inhibition of SCD in C57BL/6 mouse liver assessed as conversion of [1-(14)C]-stearic acid to [1-(14)C]-oleic acid at 30 mg/kg, po after 3 hrs. The format is functional.
Data set [6] can be described thus: Drug uptake in C57BL/6 mouse plasma at 10 mg/kg, po after 6 hrs. The format is ADME, organism-based, C57BL6. Set-up: dose 10 mg/kg, route oral. The following applies: read-out: Drug uptake.
The test system of data set [7] is Mus musculus. Nature of the data set: Inhibition of SCD in C57BL/6 mouse liver assessed as conversion of [1-(14)C]-stearic acid to [1-(14)C]-oleic acid at 10 mg/kg, po after 3 hrs. The note with it: C57BL/6, Liver. The format is functional.
The nature of data set [8]: Drug uptake in C57BL/6 mouse skin at 10 mg/kg, po after 6 hrs. The class given is ADME, organism-based, C57BL6, Zone of skin. Set-up: dose 10 mg/kg, route oral. The following applies: read-out: Drug uptake.
The subject of a further data set is Nucleic Acid. Nature of the data set: Ratio of drug uptake in liver to skin of C57BL/6 mouse at 10 mg/kg, po after 6 hrs. The class given is ADME, organism-based, C57BL6. Set-up: dose 10 mg/kg, route oral. The note with it: in vivo.
Data set [9] in a line: Drug uptake in C57BL/6 mouse harderian glands at 10 mg/kg, po after 6 hrs. The format is ADME, organism-based, C57BL6, Harderian gland. More on the design: dose 10 mg/kg, route oral. The note with it: read-out: Drug uptake.
Data set [10] relates to Mus musculus. Put plainly: Ratio of drug uptake in liver to harderian glands of C57BL/6 mouse at 10 mg/kg, po after 6 hrs. The following applies: in vivo.
Data set [11] is described as follows: Inhibition of mouse SCD.

The compound `O=C(O)CCCCCc1nc(-c2cn(Cc3cc(Br)c(Br)c(Br)c3)nn2)no1` had an IC50 at Acyl-CoA desaturase 1 [1] of 8320 nM.
As to `O=C(O)Cn1nnc(-c2cncc(-c3cn(Cc4cc(Br)c(Br)c(Br)c4)nn3)c2)n1`, the figures for the concentration for half-maximal inhibition (IC50) at Stearoyl-CoA desaturase, against Acyl-CoA desaturase 1 [1] and at Acyl-CoA desaturase 1 [4] were 6310 nM, 56 nM and 694 nM, respectively. Moreover, the concentration at 3 h in data set [2] turned out to be 900 nM. Also, in data set [3], the concentration at 6 h was 470 nM. Besides, the inhibition result in the data set on Mus musculus [5] was “inactive”.
For `NC(=O)c1cn(Cc2cc(Br)c(Br)c(Br)c2)nn1`, the IC50 is 760 nM on Stearoyl-CoA desaturase, 19 nM against Acyl-CoA desaturase 1 [1] and 10100 nM on Acyl-CoA desaturase 1 [4]. The concentration at 6 h in data set [6] worked out at 740 nM; in [8], 740 nM; in data set [3] it was 2690 nM; in data set [9], 6630 nM. In data set [2], the concentration at 3 h turned out to be 14000 nM. For the same compound, the inhibition in vivo at 10 mg/kg in the data set with Mus musculus [7] worked out at 46%. For the same compound, the Ratio in the data set with Nucleic Acid worked out at 3.6; in the data set with Mus musculus [10], 0.4.
As for `O=C(O)Cn1nnc(-c2cnc(-c3cn(Cc4cc(Br)c(Br)c(Br)c4)nn3)cn2)n1`, the IC50 on Acyl-CoA desaturase 1 [1] stood at 1250 nM.
The same measure, in the same setting: for `NC(=O)c1nnn(Cc2cc(Cl)c(Cl)c(Cl)c2)c1N` the value was 12 nM.
On the same count and under the same terms, for `O=C(O)CCCc1nc(-c2cn(Cc3cc(Br)c(Br)c(Br)c3)nn2)no1` the value was 216 nM.
The same measure, in the same setting: under `O=C(O)Cn1nnc(-c2cn(CCc3cc(Br)c(Br)c(Br)c3)nn2)n1` stands 19900 nM; under `O=C(O)CCc1nc(-c2cn(Cc3cc(Br)c(Br)c(Br)c3)nn2)no1`, 552 nM.
Turning to `O=C(O)Cn1nnc(-c2cnc(-c3cn(Cc4cc(Cl)c(Cl)c(Cl)c4)nn3)s2)n1`, the IC50 on Stearoyl-CoA desaturase is > 100000 nM; against Acyl-CoA desaturase 1 [1], 49 nM; at Acyl-CoA desaturase 1 [4], 975 nM. Also, the concentration at 3 h in data set [2] stood at 4100 nM. Also, the concentration at 6 h in [3] worked out at 330 nM. In addition, in the data set on Mus musculus [5], the inhibition entry is “inactive”.
`O=C(O)Cn1nnc(-c2ccnc(-c3cn(Cc4cc(Cl)c(Cl)c(Cl)c4)nn3)c2)n1` showed an IC50 against Acyl-CoA desaturase 1 [1] of 1310 nM.
Compound `NC(=O)c1nnn(Cc2cc(Br)c(Br)c(Br)c2)c1N` came in with an IC50 on Acyl-CoA desaturase 1 [1] of 6 nM.
The compound `O=C(O)CCCCc1nc(-c2cn(Cc3cc(Br)c(Br)c(Br)c3)nn2)no1` showed an IC50 on Acyl-CoA desaturase 1 [1] of 5250 nM.
Compound `O=C(O)Cn1nnc(-c2cc(-c3cn(Cc4cc(Cl)c(Cl)c(Cl)c4)nn3)ccn2)n1` came in with a half-maximal inhibitory concentration (IC50) at Acyl-CoA desaturase 1 [1] of 719 nM.
With `O=C(O)Cn1nnc(-c2ccc(-c3cn(Cc4cc(Cl)c(Cl)c(Cl)c4)nn3)nn2)n1`, the IC50 against Acyl-CoA desaturase 1 [1] was found to be 1810 nM.
`O=C(O)Cn1nnc(-c2cn(CCCc3cc(Br)c(Br)c(Br)c3)nn2)n1` returned a half-inhibitory concentration (IC50) against Acyl-CoA desaturase 1 [1] of 911 nM.
For the compound `O=C(O)Cn1nnc(-c2cc(-c3cn(Cc4cc(Br)c(Br)c(Br)c4)nn3)no2)n1`, the IC50 at Stearoyl-CoA desaturase stood at 37700 nM; in data set [11], 10 nM; on Acyl-CoA desaturase 1 [1], 21 nM; on Acyl-CoA desaturase 1 [4], 212 nM. Besides, the concentration at 3 h in [2] amounted to 8400 nM. In [3], the concentration at 6 h came out at 1660 nM. Also, the Ratio in the data set on Mus musculus [10] turned out to be 100. The inhibition in vivo at 30 mg/kg in the data set with Mus musculus [5] (C57BL/6, Liver) was 30%.
On to `O=C(O)Cn1nnc(-c2cnc(-c3cn(Cc4cc(Cl)c(Cl)c(Cl)c4)nn3)nc2)n1`, for which the IC50 against Acyl-CoA desaturase 1 [1] was found to be 343 nM.
For `O=C(O)Cn1nnc(-c2cn(Cc3cc(Br)c(Br)c(Br)c3)nn2)n1`, the IC50 on Acyl-CoA desaturase 1 [1] is > 20000 nM.
